These results are taken from publication PMC3262147 (Chemmedchem, 2011).

Assay [1] has as its system STS. The settings on record: cited from earlier work.
The target in assay [2] is T1, STS (Homo sapiens, UniProt P08842).
T1 sequence (P08842 22-583): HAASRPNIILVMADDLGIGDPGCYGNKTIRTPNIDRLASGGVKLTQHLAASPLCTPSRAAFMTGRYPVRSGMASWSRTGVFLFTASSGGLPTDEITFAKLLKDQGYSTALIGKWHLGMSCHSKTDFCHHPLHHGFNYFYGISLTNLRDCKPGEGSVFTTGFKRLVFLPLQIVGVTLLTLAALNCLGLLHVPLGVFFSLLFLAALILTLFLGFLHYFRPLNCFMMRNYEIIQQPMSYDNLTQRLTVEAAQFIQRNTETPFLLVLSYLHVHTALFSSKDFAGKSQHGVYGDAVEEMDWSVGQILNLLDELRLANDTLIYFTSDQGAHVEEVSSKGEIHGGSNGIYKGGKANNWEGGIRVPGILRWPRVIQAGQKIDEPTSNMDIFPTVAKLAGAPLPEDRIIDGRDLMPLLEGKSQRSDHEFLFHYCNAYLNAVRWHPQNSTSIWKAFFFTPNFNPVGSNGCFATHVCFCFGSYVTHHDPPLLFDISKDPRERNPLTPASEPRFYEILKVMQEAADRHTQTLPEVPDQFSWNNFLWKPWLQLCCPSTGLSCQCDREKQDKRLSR
The experiment in a line: Inhibition of STS activity in intact monolayers of JEG-3 cells. It counts as cell-based. The following applies: for inhibition at 10 µM: JEG-3, JEG-3 cells.

For the next assay, the system named is rat liver STS. The following applies: 24 h after administration, cited from earlier work.
Another assay has as its system liver STS, skin STS. The settings on record: 1 and 10 mg kg^−1, cited from earlier work.
The mark [3] stands for this setting: preparation of placental microsomes.
Where [4] appears, read: read-out: PM IC50, placental microsomes.

Read-outs that look alike come from different tables or passages of the source. Where only a bound is given, the exact number is not on record here.

With `COc1cc2c(cc1OS(N)(=O)=O)CC[C@@H]1[C@@H]2CC[C@]2(C)C(=O)CC[C@@H]12` [2-methoxyestrone 3-O-sulfamate, reference compound], in the assay with STS [1] (setting [3]), the 50% inhibitory concentration (IC50) was 30 nM.

For the molecule `NS(=O)(=O)Oc1ccc2c3c(c(=O)oc2c1)CCCCC3` [Compound 1, Irosustat], the IC50 with STS [1] (setting [4]) was 8 nM.

Regarding `NS(=O)(=O)Oc1ccc2c3c(c(=O)oc2c1)CCCCCCC3` [Compound 6, 6-Oxo-6,7,8,9,10,11,12,13-octahydrocyclonona[c]chromen-3-yl sulfamate], the IC50 in the assay on STS [1] (setting [4]) was 2.4 nM; at STS [2], 0.022 nM.

For `NS(=O)(=O)Oc1ccc2c3c(c(=O)oc2c1)CCCCCCCC3` [Compound 7, 6-Oxo-7,8,9,10,11,12,13,14-octahydro-6H-cyclodeca[c]chromen-3-yl sulfamate], the IC50 with STS [1] (setting [4]) is 1 nM; against STS [2] it was 0.025 nM.

As for `NS(=O)(=O)Oc1ccc2c3c(c(=O)oc2c1)CCCCCCCCCC3` [Compound 9, 6-Oxo-7,8,9,10,11,12,13,14,15,16-decahydro-6H-cyclododeca[c]chromen-3-yl sulfamate], the values for the IC50 in the assay with STS [1] (setting [4]) and against STS [2] were 60 nM and 100 nM, respectively.

Turning to `NS(=O)(=O)Oc1ccc2c3c(c(=O)oc2c1)CCCCCCCCCCC3` [Compound 10, 6-Oxo-6,7,8,9,10,11,12,13,14,15,16,17-dodecahydrocyclotrideca[c]chromen-3-yl sulfamate], the IC50 in the assay on STS [1] (setting [4]) is 75 nM; against STS [2] it was 220 nM.

Turning to `NS(=O)(=O)Oc1ccc2c3c(c(=O)oc2c1)CCCCCCCCCCCCC3` [Compound 11, 6-Oxo-6,7,8,9,10,11,12,13,14,15,16,17,18,19-tetradecahydrocyclopentadeca[c]chromen-3-yl sulfamate], the IC50 was 370 nM in the assay on STS [1] (setting [4]) and 1600 nM against STS [2]. In addition, the “Inhibition of rat liver STS activity” value in the assay with rat liver STS (0.1 mg kg^−1) is listed as 23%; in the assay on rat liver STS (1 mg kg^−1), 94%.

Take `CN(C)S(=O)(=O)Oc1ccc2c3c(c(=O)oc2c1)CCCCC3` [Compound 12, 6-Oxo-6,7,8,9,10,11-hexahydrocyclohepta[c]chromen-3-yl dimethylsulfamate]: the “Inhibition of skin and liver STS” value with liver STS, skin STS (applied topically) is “inhibits skin as well as liver STS effectively”. The “Inhibition of liver STS activity” value in the assay on liver STS, skin STS (nude mice, oral) is on record as “inhibits liver STS activity potently”. On STS [2], the half-maximal inhibitory concentration (IC50) was over 10000 nM. For the same molecule, the “JEG-3 IC50” value on STS [2] (JEG-3 cells, Table 1) was “inactive”.

Regarding `COc1cc2c3c(c(=O)oc2cc1OS(N)(=O)=O)CCCCC3` [Compound 13, 2-Methoxy-6-oxo-6,7,8,9,10,11-hexahydrocyclohepta[c]chromen-3-yl sulfamate], half-maximal inhibition on STS [2] (IC50) required 78 ± 13 nM.

Take `NS(=O)(=O)Oc1ccc2oc(=O)c3c(c2c1)CCCCC3` [Compound 14, 6-oxo-6,7,8,9,10,11-hexahydrocyclohepta[c]chromen-2-yl sulfamate]: the IC50 on STS [2] was found to be 283 ± 66 nM.

At STS [2], `NS(=O)(=O)Oc1ccc2c3c(c(=O)[nH]c2c1)CCCCC3` [Compound 16, 6-Oxo-6,7,8,9,10,11-hexahydro-5H-cyclohepta[c]quinolin-3-yl sulfamate] came in with an IC50 of 240 ± 40 nM. For the same molecule, the inhibition at 10 µM at STS [2] (determined at 10 μM) is 98%. In addition, at STS [2] (JEG-3 IC50 versus 1), the “Fold less potent than 1” value stood at 160 fold. The molecule also yielded an Inhibition at STS [2] (JEG-3 cells, determined at 10 μM, 10 µM) of 96%.

Molecule `Cn1c(=O)c2c(c3ccc(OS(N)(=O)=O)cc31)CCCCC2` [Compound 18, 5-Methyl-6-oxo-6,7,8,9,10,11-hexahydro-5H-cyclohepta[c]quinolin-3-yl sulfamate] registered an IC50 against STS [2] of 2400 nM.

The molecule `COc1nc2cc(OS(N)(=O)=O)ccc2c2c1CCCCC2` [Compound 19, 6-Methoxy-8,9,10,11-tetrahydro-7H-cyclohepta[c]quinolin-3-yl sulfamate] had an inhibition at 10 µM against STS [2] (determined at 10 μM) of 68%.

`CCCCCn1c(=O)c2c(c3ccc(OS(N)(=O)=O)cc31)CCCCC2` [Compound 20, 6-Oxo-5-pentyl-6,7,8,9,10,11-hexahydro-5H-cyclohepta[c]quinolin-3-yl sulfamate] yielded an inhibition at 10 µM on STS [2] (determined at 10 μM) of under 10%.

As for `CCCCCOc1nc2cc(OS(N)(=O)=O)ccc2c2c1CCCCC2` [Compound 21, 6-(Pentyloxy)-8,9,10,11-tetrahydro-7H-cyclohepta[c]quinolin-3-yl sulfamate], the inhibition at 10 µM against STS [2] (determined at 10 μM) is under 10%.

In turn, `NS(=O)(=O)Oc1ccc2c3c(c(=O)n(CCCc4ccccc4)c2c1)CCCCC3` [Compound 22, 6-Oxo-5-(3-phenylpropyl)-6,7,8,9,10,11-hexahydro-5H-cyclohepta[c]quinolin-3-yl sulfamate] returned an inhibition at 10 µM against STS [2] (determined at 10 μM) of 20%.

`NS(=O)(=O)Oc1ccc2c3c(c(OCCCc4ccccc4)nc2c1)CCCCC3` [Compound 23, 6-(3-Phenylpropoxy)-8,9,10,11-tetrahydro-7H-cyclohepta[c]quinolin-3-yl sulfamate] came in with an inhibition at 10 µM against STS [2] (determined at 10 μM) of under 10%.

Consider `NS(=O)(=O)Nc1ccc2c3c(c(=O)[nH]c2c1)CCCCC3` [Compound 24, 6-Oxo-6,7,8,9,10,11-hexahydro-5H-cyclohepta[c]quinolin-3-ylsulfamide], for which the IC50 against STS [2] is over 1000 nM.

On to `C[C@]12CC[C@@H]3c4ccc(OS(N)(=O)=O)cc4CC[C@H]3[C@@H]1CCC2=O` [EMATE, oestrone 3-O-sulfamate, reference compound], for which, in the assay on STS [1] (setting [3]), the IC50 is 4 nM.
